Data as given in PMC9457773 (Molecules, 2022).
Read-outs that look alike come from different tables or passages of the source.

What was measured:
[1] = rat; for Stability, Bench-Top: measured concentration: 4 h; for Stability, Autosampler: measured concentration: 12 h; for Stability, Long-Term: measured concentration: 30 days
Procedure: (§1) A 5 μL aliquot of the mixed working solution was added to 45 μL of blank plasma to prepare the calibration standards.
(§2) The selectivity of the method was assessed by comparing the chromatograms of six independent blank rat plasma samples, simulated plasma samples in which blank rat plasma samples were spiked with working solution at a lower limit of quantitation (LLOQ) and IS, and actual plasma samples collected from rats. […] Different concentrations of the QC and LLOQ samples, with six replicates at each concentration, were used to evaluate precision and accuracy, and inter-batch precision and accuracy were evaluated by measurements for three consecutive days. The precision was expressed as the coefficient of variation (CV%), and the accuracy was expressed as the relative error (RE%). The extraction recovery was evaluated by comparing the peak areas of blank plasma spiked with working solution pre-extraction and blank plasma spiked with working solution post-extraction. The matrix effect was evaluated by the ratio of the peak area of the analyte in the plasma to the peak area of the analyte in solution at three concentrations of the QC samples. […] Three concentrations of the QC samples, with six replicates at each concentration level, were used to examine the stability of the three analytes at room temperature for 4 h, in the autosampler for 12 h, at −80 °C for 30 days, and freeze–thaw three times.

[2] = literature value, Introduction; cited from earlier work
[3] = literature value, Introduction, cited from earlier work
[4] = literature statement in words, Introduction, cited from earlier work
[5] = Pharmacokinetic and drug–drug interaction study in rats (plasma, UPLC–MS/MS); conditions: for AUC(0-inf): AUCinf; for AUC(0-t): AUClast; for CL/F: CLz/F; for Tmax: median (range); for Vd/F: Vz/F; for half-life: t1/2z
Procedure: First, 50 μL of the plasma sample was added to 5 μL of the mixture IS working solution and 500 μL of the extraction reagent (methyl tert-butyl ether and ethyl acetate, 1:4) vortex-mixed for 3 min and then centrifuged at 12,000 rpm for 10 min. Next, 400 μL of supernatant was transferred into a new centrifuge tube, which was blown dry under a stream of nitrogen, and the residue was re-solubilized with 150 μL of 50% acetonitrile–water.
The concentrations of analytes were determined by UPLC–MS/MS, which consisted of an LC-30A ultra-performance liquid chromatography (Shimadzu, Japan), and Sciex Triple Quad 5500 tandem triple quadrupole mass spectrometer (Applied Biosystems Sciex, Framingham, MA, USA). The XSelect HSS T3 column (2.1 mm × 100 mm, 2.5 μm, Waters, Milford, MA, USA) was used for chromatographic separation. Phase A (0.1% formic acid in ultrapure water containing 5 mM ammonium acetate) and phase B (acetonitrile) were used as the mobile phases for gradient elution at 0.35 mL/min.
The experimental animals were randomly divided into five groups (n = 6 per group). […] Approximately 0.25 mL of blood was collected from the orbital venous plexus of rats in pre-heparinized centrifuge tubes. […] Blood samples were centrifuged at 3500 rpm for 10 min, and the plasma was transferred to new centrifuge tubes and then stored at −80 °C.
The Cmax and Tmax (time to maximum plasma concentration) were read directly from the drug concentrations. The other pharmacokinetic parameters were analyzed using a non-compartmental analysis with Phoenix WinNonLin 8.2 software (Pharsight, Mountain View, Certara, CA, USA).

[6] = Stability of QC samples in rat plasma under various storage conditions; conditions: for Stability, Autosampler: measured concentration / Stability, Freeze-Thaw: measured concentration / Stability, Bench-Top: measured concentration / Stability, Long-Term: measured concentration: rat plasma QC, n = 6; for Stability, Autosampler: measured concentration: autosampler for 12 h; for Stability, Freeze-Thaw: measured concentration: freeze–thaw three times; for Stability, Bench-Top: measured concentration: room temperature for 4 h; for Stability, Long-Term: measured concentration: −80 °C for 30 days
Procedure: as §1, §2

[7] = Sprague Dawley, rat, plasma, po, 1.2 mg/kg, lenvatinib in rat plasma, lenvatinib 1.2 mg/kg oral co-administered with canagliflozin 10 mg/kg (VLEN+CA), n = 6, mean ± SD
[8] = Sprague Dawley, rat, plasma, po, 1.2 mg/kg, lenvatinib in rat plasma, oral single dose lenvatinib 1.2 mg/kg alone (IILEN), n = 6, mean ± SD
[9] = lenvatinib (1.2 mg/kg) in the presence of canagliflozin (10 mg/kg) compared to lenvatinib alone, rats
[10] = lenvatinib in rat plasma, oral single dose lenvatinib 1.2 mg/kg alone (IILEN), n = 6, mean ± SD
[11] = Sprague Dawley, rat, plasma, po, 100 mg/kg, sorafenib in rat plasma, oral single dose sorafenib 100 mg/kg alone (ISOR), n = 6, mean ± SD
[12] = Sprague Dawley, rat, plasma, po, 100 mg/kg, sorafenib in rat plasma, sorafenib 100 mg/kg oral co-administered with canagliflozin 10 mg/kg (IVSOR+CA), n = 6, mean ± SD

Structure (SMILES): COc1cc2nccc(Oc3ccc(NC(=O)NC4CC4)c(Cl)c3)c2cc1C(N)=O [lenvatinib, Lenvatinib]
- Stability, Freeze-Thaw: measured concentration ([1]; 0.5 ng/mL): 0.53 ± 0.03 ng/mL
- Stability, Freeze-Thaw: measured concentration ([1]; 150 ng/mL): 157.33 ± 11.02 ng/mL
- Stability, Freeze-Thaw: measured concentration ([1]; 800 ng/mL): 725.83 ± 18.06 ng/mL
- Stability, Bench-Top: measured concentration ([1]; 0.5 ng/mL): 0.54 ± 0.03 ng/mL
- Stability, Bench-Top: measured concentration ([1]; 150 ng/mL): 156.67 ± 7.42 ng/mL
- Stability, Bench-Top: measured concentration ([1]; 800 ng/mL): 794.00 ± 18.24 ng/mL
- Stability, Autosampler: measured concentration ([1]; 0.5 ng/mL): 0.53 ± 0.04 ng/mL
- Stability, Autosampler: measured concentration ([1]; 150 ng/mL): 162.67 ± 7.42 ng/mL
- Stability, Autosampler: measured concentration ([1]; 800 ng/mL): 819.50 ± 30.36 ng/mL
- Stability, Long-Term: measured concentration ([1]; 0.5 ng/mL): 0.47 ± 0.03 ng/mL
- Stability, Long-Term: measured concentration ([1]; 150 ng/mL): 157.00 ± 12.63 ng/mL
- Stability, Long-Term: measured concentration ([1]; 800 ng/mL): 714.00 ± 24.44 ng/mL
- plasma protein binding rate [2]: approximately 98%
- half-life [3]: 28 h
- solubility [4]: low
- AUC(0-inf) [5, 7]: 7280 ± 1170 ng·h/mL
- AUC(0-t) [5, 7]: 7280 ± 1170 ng·h/mL
- CL/F [5, 7]: 2.83 mL/min/kg
- CL/F [5, 8]: 3.67 mL/min/kg
- Cmax [5, 7]: 985 ± 162 ng/mL
- Cmax [5, 8]: 721 ± 144 ng/mL
- Tmax ([5]; Sprague Dawley, rat, plasma, po, 1.2 mg/kg, Tmax, lenvatinib in rat plasma, oral single dose lenvatinib 1.2 mg/kg alone (IILEN), n = 6): 1.75 h
- Vd/F [5, 7]: 1.56 ± 0.29 L/kg
- Vd/F [5, 8]: 3.31 ± 1.51 L/kg
- half-life [5, 7]: 6.49 ± 1.04 h
- half-life [5, 8]: 10.5 ± 4.53 h
- decrease of CLz/F [5, 9]: 22.7%
- decrease of Vz/F [5, 9]: 52.9%
- decrease of t1/2 [5, 9]: 38%
- increase of AUCinf [5, 9]: 28.9%
- increase of AUClast [5, 9]: 28.9%
- increase of Cmax [5, 9]: 36.2%
- Tmax ([5]; lenvatinib in rat plasma, lenvatinib 1.2 mg/kg oral co-administered with canagliflozin 10 mg/kg (VLEN+CA), n = 6): 1.50 (0.88–1.63) h
- AUCinf [5, 10]: 5653 ± 1299 ng·h/mL
- AUClast [5, 10]: 5640 ± 1292 ng·h/mL
- increase of AUC ([5]; lenvatinib in the presence of canagliflozin, rats, abstract, AUC not specified as last or inf): 28.9%

Structure (SMILES): CNC(=O)c1cc(Oc2ccc(NC(=O)Nc3ccc(Cl)c(C(F)(F)F)c3)cc2)ccn1 [sorafenib, Sorafenib]
- plasma protein binding rate [2]: 99.5%
- time to peak blood concentration ([3]; after oral administration): approximately 3 h
- solubility [4]: poor
- permeability ([4]; membrane permeability): high
- stability during the different processing and storage conditions ([6]; rat plasma QC samples, room temperature 4 h, autosampler 12 h, −80 °C 30 days, three freeze–thaw cycles): stable
- Stability, Autosampler: measured concentration ([6]; nominal 10 ng/mL): 11.13 ± 0.24 ng/mL
- Stability, Freeze-Thaw: measured concentration ([6]; nominal 10 ng/mL): 10.55 ± 0.43 ng/mL
- Stability, Bench-Top: measured concentration ([6]; nominal 10 ng/mL): 10.97 ± 0.29 ng/mL
- Stability, Long-Term: measured concentration ([6]; nominal 10 ng/mL): 10.51 ± 0.43 ng/mL
- Stability, Autosampler: measured concentration ([6]; nominal 1500 ng/mL): 1540.00 ± 95.71 ng/mL
- Stability, Freeze-Thaw: measured concentration ([6]; nominal 1500 ng/mL): 1531.67 ± 117.88 ng/mL
- Stability, Bench-Top: measured concentration ([6]; nominal 1500 ng/mL): 1551.67 ± 84.00 ng/mL
- Stability, Long-Term: measured concentration ([6]; nominal 1500 ng/mL): 1565.00 ± 123.25 ng/mL
- Stability, Autosampler: measured concentration ([6]; nominal 3750 ng/mL): 3961.67 ± 102.26 ng/mL
- Stability, Freeze-Thaw: measured concentration ([6]; nominal 3750 ng/mL): 3698.33 ± 72.78 ng/mL
- Stability, Bench-Top: measured concentration ([6]; nominal 3750 ng/mL): 3948.33 ± 99.88 ng/mL
- Stability, Long-Term: measured concentration ([6]; nominal 3750 ng/mL): 3583.33 ± 67.43 ng/mL
- AUC(0-inf) [5, 11]: 40300 ng·h/mL
- AUC(0-inf) [5, 12]: 41300 ng·h/mL
- AUC(0-t) [5, 11]: 40000 ng·h/mL
- AUC(0-t) [5, 12]: 41200 ng·h/mL
- CL/F [5, 11]: 47.7 mL/min/kg
- CL/F [5, 12]: 42 mL/min/kg
- Cmax [5, 11]: 1920 ± 298 ng/mL
- Cmax [5, 12]: 2200 ± 535 ng/mL
- Vd/F [5, 11]: 49 ± 18.8 L/kg
- Vd/F [5, 12]: 38.3 ± 10.1 L/kg
- half-life [5, 11]: 12.3 ± 2.23 h
- Tmax ([5]; sorafenib in rat plasma, oral single dose sorafenib 100 mg/kg alone (ISOR), n = 6): 8.00 (7.00–8.00) h
- t1/2z ([5]; sorafenib in rat plasma, sorafenib 100 mg/kg oral co-administered with canagliflozin 10 mg/kg (IVSOR+CA), n = 6, mean ± SD): 10.47 ± 0.94 h
